Where “and” joins values, the source holds several entries; their conditions need not be identical. Identical values can stand only once. Like-named read-outs stand apart in the source and are kept apart here.
Assays:
[1] = tested on: isolated Dd2-Polδ P. falciparum trophozoites; assay: [Na+]cyt measurement (SBFI), Na+ dysregulation; type: cell-based, Plasmodium falciparum; design: Final [Na+]cyt reached: unit not given here; details: for Final [Na+]cyt reached: Dd2-Polδ; for IC50: Plasmodium falciparum
Procedure: (§1) The ratio of the fluorescence intensity recorded at 340 nm and 380 nm (with an emission wavelength of 515 nm) was converted to [Na^+]cyt using a calibration procedure that entailed suspending parasites in solutions of varying [Na^+] containing ionophores. Fluorescence measurements and calibrations were performed at 37 °C, either with individual 1 mL suspensions using a PerkinElmer LS 50B fluorescence spectrometer (for resting [Na^+]cyt measurements for which the data are shown in Supplementary Fig. 7) or in 96-well plates using a Tecan Infinite M1000 PRO plate reader with i-control (version 1.12) software (all other [Na^+]cyt measurements).

[2] = tested on: isolated Dd2-Polδ-PfATP4^G358S P. falciparum trophozoites; assay: [Na+]cyt measurement (SBFI), Na+ dysregulation; type: cell-based, Plasmodium falciparum; design: Final [Na+]cyt reached: unit not given here
Procedure: as §1

[3] = tested on: PfATP4-mutant P. falciparum lines and their parents; details: cited from earlier work

With `N#Cc1cc(NC(=O)[C@H]2c3ccccc3C(=O)N(CC(F)(F)F)[C@@H]2c2cccnc2)ccc1F` [(+)-SJ733] the “Final [Na+]cyt reached” value ([1]; [(+)-SJ733] 39.1 nM, MEAN) was 53.8, the “Final [Na+]cyt reached” value ([1]; [(+)-SJ733] 78.1 nM, MEAN) was 78.4 and the “Final [Na+]cyt reached” value ([1]; [(+)-SJ733] 156.3 nM, MEAN) was 97.5. The “Final [Na+]cyt reached” value ([1]; [(+)-SJ733] 156.3 nM, single experiments) was 122.9 and 77.5 and 89.5 and 99.9, the “Final [Na+]cyt reached” value ([1]; [(+)-SJ733] 312.5 nM, MEAN) was 102.1 and the “Final [Na+]cyt reached” value ([1]; [(+)-SJ733] 312.5 nM, single experiments) was 131.1 and 85.2 and 96.4 and 95.7. For the same compound, the “Final [Na+]cyt reached” value ([1]; [(+)-SJ733] 625 nM, MEAN) was 112.5, the “Final [Na+]cyt reached” value ([1]; [(+)-SJ733] 625 nM, single experiments) was 132.7 and 104.6 and 109.2 and 103.6 and the “Final [Na+]cyt reached” value ([1]; [(+)-SJ733] 2500 nM, MEAN) was 112.4. For the same compound, the “Final [Na+]cyt reached” value ([1]; [(+)-SJ733] 2500 nM, single experiments) was 123.5 and 114.1 and 104.4 and 107.6, the “Final [Na+]cyt reached” value ([1]; [(+)-SJ733] 5000 nM, MEAN) was 111.0 and the “Final [Na+]cyt reached” value ([1]; [(+)-SJ733] 5000 nM, single experiments) was 138.3 and 95.8 and 115.2 and 94.7. The “Final [Na+]cyt reached” value ([1]; [(+)-SJ733] 10000 nM, MEAN) was 115.2, the “Final [Na+]cyt reached” value ([1]; [(+)-SJ733] 10000 nM, single experiments) was 139.1 and 108.5 and 119.1 and 94.2 and the “Final [Na+]cyt reached” value ([1]; [(+)-SJ733] 20000 nM, MEAN) was 108.1. The “Final [Na+]cyt reached” value ([1]; [(+)-SJ733] 20000 nM, single experiments) was 139.5 and 98.0 and 111.1 and 84.0, the IC50 ([1]; DD2, 1.5 h, pH 7.1, Dd2-Polδ, ~90 min exposure, 37 °C, pH 7.1, mean ± SEM, read-out: IC50 for Na+ dysregulation) was 55 ± 15 nM and the IC50 ([1]; DD2, Dd2-Polδ, MEAN, source data of Table 1 (nM there), read-out: IC50 for Na+ dysregulation, MEAN) was 55 nM. For the same compound, the “difference in potency between the drugs” value ([1]; vs cipargamin, [Na+]cyt assays (P. falciparum, T. gondii) and P. falciparum proliferation assays) was over 6 fold, the “Final [Na+]cyt reached” value ([2]; Dd2-Polδ-PfATP4G358S, [(+)-SJ733] 9.8 nM, MEAN) was 28.4 and the “Final [Na+]cyt reached” value ([2]; Dd2-Polδ-PfATP4G358S, [(+)-SJ733] 9.8 nM, single experiments) was 25.4 and 25.6 and 34.3. The “Final [Na+]cyt reached” value ([2]; Dd2-Polδ-PfATP4G358S, [(+)-SJ733] 19.5 nM, MEAN) was 28.2, the “Final [Na+]cyt reached” value ([2]; Dd2-Polδ-PfATP4G358S, [(+)-SJ733] 19.5 nM, single experiments) was 24.8 and 26.3 and 33.5 and the “Final [Na+]cyt reached” value ([2]; Dd2-Polδ-PfATP4G358S, [(+)-SJ733] 39.1 nM, MEAN) was 28.7. The “Final [Na+]cyt reached” value ([2]; Dd2-Polδ-PfATP4G358S, [(+)-SJ733] 39.1 nM, single experiments) was 26.5 and 26.8 and 32.9, the “Final [Na+]cyt reached” value ([2]; Dd2-Polδ-PfATP4G358S, [(+)-SJ733] 78.1 nM, MEAN) was 29.0 and the “Final [Na+]cyt reached” value ([2]; Dd2-Polδ-PfATP4G358S, [(+)-SJ733] 78.1 nM, single experiments) was 26.6 and 27.0 and 33.4. For the same compound, the “Final [Na+]cyt reached” value ([2]; Dd2-Polδ-PfATP4G358S, [(+)-SJ733] 156.3 nM, MEAN) was 28.6, the “Final [Na+]cyt reached” value ([2]; Dd2-Polδ-PfATP4G358S, [(+)-SJ733] 156.3 nM, single experiments) was 25.8 and 27.2 and 32.8 and the “Final [Na+]cyt reached” value ([2]; Dd2-Polδ-PfATP4G358S, [(+)-SJ733] 312.5 nM, MEAN) was 25.7. The “Final [Na+]cyt reached” value ([2]; Dd2-Polδ-PfATP4G358S, [(+)-SJ733] 312.5 nM, single experiments) was 25.5 and 26.1 and 32.5 and 18.8, the “Final [Na+]cyt reached” value ([2]; Dd2-Polδ-PfATP4G358S, [(+)-SJ733] 625 nM, MEAN) was 26.8 and the “Final [Na+]cyt reached” value ([2]; Dd2-Polδ-PfATP4G358S, [(+)-SJ733] 625 nM, single experiments) was 26.0 and 26.8 and 34.1 and 20.2. For the same compound, the “Final [Na+]cyt reached” value ([2]; Dd2-Polδ-PfATP4G358S, [(+)-SJ733] 2500 nM, MEAN) was 28.2, the “Final [Na+]cyt reached” value ([2]; Dd2-Polδ-PfATP4G358S, [(+)-SJ733] 2500 nM, single experiments) was 27.1 and 27.5 and 36.9 and 21.3 and the “Final [Na+]cyt reached” value ([2]; Dd2-Polδ-PfATP4G358S, [(+)-SJ733] 5000 nM, MEAN) was 30.8. The “Final [Na+]cyt reached” value ([2]; Dd2-Polδ-PfATP4G358S, [(+)-SJ733] 5000 nM, single experiments) was 29.9 and 28.6 and 41.3 and 23.6, the “Final [Na+]cyt reached” value ([2]; Dd2-Polδ-PfATP4G358S, [(+)-SJ733] 10000 nM, MEAN) was 38.0 and the “Final [Na+]cyt reached” value ([2]; Dd2-Polδ-PfATP4G358S, [(+)-SJ733] 10000 nM, single experiments) was 34.4 and 33.8 and 55.9 and 28.0. For the same compound, the “Final [Na+]cyt reached” value ([2]; Dd2-Polδ-PfATP4G358S, [(+)-SJ733] 20000 nM, MEAN) was 58.1, the “Final [Na+]cyt reached” value ([2]; Dd2-Polδ-PfATP4G358S, [(+)-SJ733] 40000 nM, MEAN) was 76.7 and the “Final [Na+]cyt reached” value ([2]; Dd2-Polδ-PfATP4G358S, [(+)-SJ733] 40000 nM, single experiments) was 88.7 and 92.6 and 48.8. It also gave an IC50 ([2]; Dd2-Polδ-PfATP4G358S, single experiments, source data of Table 1 (nM there), read-out: IC50 for Na+ dysregulation) of over 20000 nM, an IC50 ([2]; Plasmodium falciparum, DD2, 1.5 h, pH 7.1, Dd2-Polδ-PfATP4G358S, ~90 min exposure, 37 °C, pH 7.1, read-out: IC50 for Na+ dysregulation) of over 10000 nM and an IC50 ([2]; Plasmodium falciparum, DD2, Dd2-Polδ-PfATP4G358S, MEAN, source data of Table 1 (nM there), read-out: IC50 for Na+ dysregulation, MEAN) of over 10000 nM. For the same compound, the IC50 ([2]; Plasmodium falciparum, DD2, Dd2-Polδ-PfATP4G358S, single experiments, source data of Table 1 (nM there), read-out: IC50 for Na+ dysregulation) was over 10000 nM, the IC50 ([3]; genetically engineered parasites bearing L350H in PfATP4) was 3.5 µM and the IC50 ([3]; genetically engineered parasites bearing P412T in PfATP4) was 10 µM. For the same compound, the IC50 ([3]; parental wild-type parasites) was 0.075 µM.

Source: paper PMC9525273 (Nature Communications, 2022)
